Four molecules from patent US20250171495A1, “MUTLI-TARGETED SERINE PROTEASE INHIBITORS FOR TREATMENT OF CANCER AND VIRAL INFECTION” (Washington University, priority 2023, published 2025) can be followed below.

Where two headings read alike, the source gives them in different places.

Experiment [1] deals with VSV-SARS-CoV-2. The experiment in a line: microbe, parasite or virus in culture. The note with it: Vesicular stomatitis virus, Calu-3, in Homo sapiens, read-out: VSV SARS CoV-2 Cell Entry EC50 (nM).
Experiment [2] has as its system VSV-SARS-CoV-2.

Turning to `CC(=O)N[C@@H](CCCCN)C(=O)N[C@@H](CCC(N)=O)C(=O)N[C@@H](CC(C)C)C(=O)N[C@@H](CCCNC(=N)N)C(=O)c1nc2ccccc2s1` [ZFH7006, N-[(S)-3-methyl-1-[N-(S)-1-[(1,3-benzothiazol-2-yl)carbonyl]-4-guanidinobutylcarbamoyl]butyl](S)-2-[(S)-1-acetylamino-5-aminopentylcarbonyl-amino]glutaramide], the EC50 in experiment [1] worked out at 572 nM; in experiment [2] (read-out: VSV SARS CoV-2 Cell Entry EC50), 0.652 µM. `CC(=O)N[C@H]1CC(=O)NCCCC[C@@H](C(=O)N[C@@H](CCCNC(=N)N)C(=O)c2nc3ccccc3s2)NC(=O)[C@H](CC(C)C)NC1=O` [VD2173, Ac-Cyclo(DLK)—R-ketobenzothiazole] displayed a concentration for a half-maximal effect (EC50) in experiment [2] (VSV-) of 0.197 µM. As for `CCC(C)[C@H](NC(C)=O)C(=O)N[C@@H](CCC(=O)O)C(=O)N[C@@H](Cc1ccccc1)C(=O)N[C@@H](CCCNC(=N)N)C(=O)c1nc2ccccc2s1` (stereo partly drawn) [MM4037-2, (S)-4-[(2S)-2-acetylamino-3-methylvalerylamino]-4-[N-(S)-1-[N-(S)-1-[(1,3-benzothiazol-2-yl)carbonyl]-4-guanidinobutylcarbamoyl]-2-phenylethylcarbamoyl]butyric acid], the concentration for a half-maximal effect (EC50) in experiment [1] amounted to 23.9 nM.

On to `CCC(C)[C@H](NC(C)=O)C(=O)N[C@@H](CCC(N)=O)C(=O)N[C@@H](C)C(=O)N[C@@H](CCCNC(=N)N)C(=O)c1nc2ccccc2s1` (stereo partly drawn) [MM3178, N-[(S)-1-[N-(S)-1-[(1,3-benzothiazol-2-yl)carbonyl]-4-guanidinobutylcarbamoyl]ethyl](S)-2-[(2S)-2-acetylamino-3-methylvalerylamino]glutaramide], for which, in experiment [1], the concentration for a half-maximal effect (EC50) was 10.8 nM.
